33 compounds from patent US7342012B2, “Inhibitors of αLβ2 mediated cell adhesion” (Mitsubishi Tanabe Pharma Corporation, priority 1999, dated 2008) can be followed below.

Where a name gives a salt, the structure may show the parent alone.

The term melting point denotes the temperature, or range, at which the solid turns liquid. As for `O=C(O)CCC(=O)N[C@@H]1CN2C(=O)N(c3cc(Cl)nc(Cl)c3)C(=O)[C@@]2(Cc2ccc(OC(F)(F)F)cc2)C1` [Example 66, (5R,7S)-5-[4-(Trifluoromethoxy)benzyl]-3-(2,6-dichloro-4-pyridyl)-7-(3-carboxypropanoylamino)-1,3-diazabicyclo[3.3.0]octane-2,4-dione], the melting point came out at 101.9 °C.

`O=C(O)c1ccc(CC23CCCCN2C(=O)N(c2cc(Cl)cc(Cl)c2)C3=O)cc1` (stereo not drawn) [Example 156]: the melting point is 256.2 °C (dec.).

In the case of `COC(=O)c1ccc(CC23CCCCN2C(=O)N(c2cc(Cl)cc(Cl)c2)C3=O)cc1` (stereo not drawn) [Example 155, 6-(4-Methoxycarbonylbenzyl)-8-(3,5-dichlorophenyl)-1,8-diazabicyclo[4.3.0]nonane-7,9-dione], the melting point is 51 °C.

`N#Cc1ccc(C(F)(F)C23CCCN2C(=O)N(c2cc(Cl)cc(Cl)c2)C3=O)cc1` (stereo not drawn) [Example 113, 5-(4-Cyano-α,α-difluorobenzyl)-3-(3,5-dichlorophenyl)-1,3-diazabicyclo[3.3.0]octane-2,4-dione] registered a melting point of 66 °C.

For the compound `O=C1N(c2cc(Cl)cc(Cl)c2)C(=O)C2(Cc3ccc(Br)cc3)CNCCN12` (stereo not drawn) [Example 27, 6-(4-Bromobenzyl)-8-(3,5-dichlorophenyl)-1,4,8-triazabicyclo[4.3.0]nonane-7,9-dione], the melting point stood at 92.5 °C.

As to `CC(O)c1cccc(-c2ccc(CC34CCCN3C(=O)N(c3cc(Cl)cc(Cl)c3)C4=O)cc2)c1` (stereo not drawn) [Example 223, 5-[4-[3-(!-Hydroxy)ethylphenyl]benzyl]-3-(3,5-dichlorophenyl)-1,3-diazabicyclo[3.3.0]octane-2,4-dione], the melting point came out at 66.5 °C.

Consider `Cc1cc([C@H]2CN3C(=O)N(c4cc(Cl)nc(Cl)c4)C(=O)[C@]3(Cc3ccc(OC(F)(F)F)cc3)C2)c(C)[nH]1` [Example 288, (5R, 7S)-5-[4-(Trifluoromethoxy)benzyl]-3-(2,6-dichloro-4-pyridyl)-7-(2,5-dimethylpyrrolyl)-1,3-diazabicyclo[3.3.0]octane-2,4-dione], for which the melting point amounted to 112.4 °C.

Take `COC(=O)CCN1CCCC2(Cc3ccc(Br)cc3)C(=O)N(c3cc(Cl)nc(Cl)c3)C(=O)N12` (stereo not drawn) [Example 103, 6-(4-Bromobenzyl)-8-(2,6-dichloro-4-pyridyl)-2-[2-(methoxycarbonyl)ethyl]-1,2,8-triazabicyclo[4.3.0]nonane-7,9-dione]: the melting point worked out at 157 °C.

The compound `CC(C)(C)OC(=O)CN1CCN2C(=O)N(c3cc(Cl)cc(Cl)c3)C(=O)C2(Cc2ccc(Br)cc2)C1` (stereo not drawn) [Example 30, 4-(tert-Butoxycarbonylmethyl)-6-(4-bromobenzyl)-8-(3,5-dichlorophenyl)-1,4,8-triazabicyclo[4.3.0]nonane-7,9-dione] came in with a melting point of 74.7 °C.

`C[S+]([O-])c1ccc(CC23CCCN2C(=O)N(c2cc(Cl)cc(Cl)c2)C3=O)cc1` (stereo not drawn) [Example 189, 5-(4-Methylsulfinylbenzyl)-3-(3,5-dichlorophenyl)-1,3-diazabicyclo[3.3.0]octane-2,4-dione] yielded a melting point of 71.2 °C.

With `O=C1N(c2cc(Cl)cc(Cl)c2)C(=O)[C@]2(Cc3ccc(Br)cc3)C[C@@H](O)CN12` [Example 2, (5S, 7R)-5-(4-Bromobenzyl)-3-(3,5-dichlorophenyl)-7-hydroxy-1,3-diazabicyclo[3.3.0]octane-2,4-dione], the melting point was found to be 136.1 °C.

The compound `CN(C)CC(=O)N1CCN2C(=O)N(c3cc(Cl)cc(Cl)c3)C(=O)C2(Cc2ccc(Br)cc2)C1` (stereo not drawn) [Example 31, 4-[(Dimethylamino)acetyl]-6-(4-bromobenzyl)-8-(3,5-dichlorophenyl)-1,4,8-triazabicyclo[4.3.0]nonane-7,9-dione] returned a melting point of 73.5 °C.

In turn, `N#Cc1ccc(C[C@]23C[C@@H](O)CN2C(=O)N(c2cc(Cl)nc(Cl)c2)C3=O)cc1` [Example 60, (5R,7R)-5-(4-Cyanobenzyl)-3-(2,6-dichloro-4-pyridyl)-7-hydroxy-1,3-diazabicyclo[3.3.0]octane-2,4-dione] gave a melting point of 97.6 °C.

In the case of `CC(C)(C)OC(=O)N1CCN2C(=O)N(c3cc(Cl)cc(Cl)c3)C(=O)C2(Cc2ccc(Br)cc2)C1` (stereo not drawn) (as salt: Na) [Example 26, 4-(tert-Butoxycarbonyl)-6-(4-bromobenzyl)-8-(3,5-dichlorophenyl)-1,4,8-triazabicyclo[4.3.0]nonane-7,9-dione], the melting point is 79.5 °C.

Turning to `O=C1N(c2cc(Cl)cc(Cl)c2)C(=O)C2(Cc3ccc([S+]([O-])C(F)(F)F)cc3)CCCN12` (stereo not drawn) [Example 310], the melting point was determined as 63.5 °C.

For `O=C1N(c2cc(Cl)cc(Cl)c2)C(=O)C2(Cc3ccc(-c4cccnc4)cc3)CCCCN12` (stereo not drawn) [Example 7, 6-[4-(3-Pyridyl)benzyl]-8-(3,5-dichlorophenyl)-1,8-diazabicyclo[4.3.0]nonane-7,9-dione], the melting point amounted to 276.5 °C.

`CS(=O)(=O)c1ccc(CC23CCCN2C(=O)N(c2cc(Cl)cc(Cl)c2)C3=O)cc1` (stereo not drawn) [Example 190, 5-(4-Methylsulfonylbenzyl)-3-(3,5-dichlorophenyl)-1,3-diazabicyclo[3.3.0]octane-2,4-dione] came in with a melting point of 80.3 °C.

`N#Cc1ccc(CC23CCCN2C(=O)N(c2cc(Cl)nc(Cl)c2)C3=O)cc1` (stereo not drawn) [Example 130, 5-(4-Cyanobenzyl)-3-(2,6-dichloro-4-pyridyl)-1,3-diazabicyclo[3.3.0]octane-2,4-dione] yielded a melting point of 96 °C.

On to `NCC(=O)N[C@@H]1CN2C(=O)N(c3cc(Cl)nc(Cl)c3)C(=O)[C@@]2(Cc2ccc(OC(F)(F)F)cc2)C1` [Example 252, (5R, 7S)-5-[4-(Trifluoromethoxy)benzyl]-3-(2,6-dichloro-4-pyridyl)-7-aminoacetylamino-1,3-diazabicyclo[3.3.0]octane-2,4-dione], for which the melting point came to 114 °C.

`NC(=O)N[C@@H]1CN2C(=O)N(c3cc(Cl)nc(Cl)c3)C(=O)[C@@]2(Cc2ccc(OC(F)(F)F)cc2)C1` [Example 287, (5R, 7S)-5-[4-(Trifluoromethoxy)benzyl]-3-(2,6-dichloro-4-pyridyl)-7-ureido-1,3-diazabicyclo[3.3.0]octane-2,4-dione] returned a melting point of 141.7 °C.

With `O=C1N(c2cc(Cl)cc(Cl)c2)C(=O)C2(Cc3ccc(Br)cc3)CCCCN12` (stereo not drawn) [Example 6, 6-(4-Bromobenzyl)-8-(3,5-dichlorophenyl)-1,8-diazabicyclo[4.3.0]nonane-7,9-dione], the melting point was determined as 128.8 °C.

`O=C1N(c2cccc(Cl)c2)C(=O)C2(Cc3ccc(Br)cc3)CCCN12` (stereo not drawn) [Example 230] showed a melting point of 66 °C.

Turning to `CC(=O)O[C@@H]1CN2C(=O)N(c3cc(Cl)cc(Cl)c3)C(=O)[C@]2(Cc2ccc(Br)cc2)C1` [Example 4, (5S,7S)-5-(4-Bromobenzyl)-3-(3,5-dichlorophenyl)-7-acetoxy-1,3-diazabicyclo[3.3.0]octane-2,4-dione], the melting point is 149.8 °C.

In the case of `O=C(N[C@@H]1CN2C(=O)N(c3cc(Cl)nc(Cl)c3)C(=O)[C@@]2(Cc2ccc(OC(F)(F)F)cc2)C1)c1ccncc1` [Example 67, (5R,7S)-5-[4-(Trifluoromethoxy)benzyl]-3-(2,6-dichloro-4-pyridyl)-7-(isonicotinoylamino)-1,3-diazabicyclo[3.3.0]octane-2,4-dione], the melting point came to 148 °C.

Take `N#Cc1cc(CC23CCCN2C(=O)N(c2cc(Cl)nc(Cl)c2)C3=O)ccc1O` (stereo not drawn) [Example 197, 5-(3-Cyano-4-hydroxybenzyl)-3-(2,6-dichloro-4-pyridyl)-1,3-diazabicyclo[3.3.0]octane-2,4-dione]: the melting point worked out at 113.5 °C.

For `O=C(O)CN1CCN2C(=O)N(c3cc(Cl)cc(Cl)c3)C(=O)C2(Cc2ccc(Br)cc2)C1` (stereo not drawn) [Example 34, 4-Carboxymethyl-6-(4-bromobenzyl)-8-(3,5-dichlorophenyl)-1,4,8-triazabicyclo[4.3.0]nonane-7,9-dione], the melting point came out at 236.5 °C.

In turn, `CC(=O)N1CCCC2(Cc3ccc(Br)cc3)C(=O)N(c3cc(Cl)nc(Cl)c3)C(=O)N12` (stereo not drawn) [Example 101, 6-(4-Bromobenzyl)-8-(2,6-dichloro-4-pyridyl)-2-acetyl-1,2,8-triazabicyclo[4.3.0]nonane-7,9-dione] displayed a melting point of 91 °C.

With `CC(C)(C)OC(=O)c1c(Cl)cc(N2C(=O)N3CCCC3(Cc3ccc(Br)cc3)C2=O)cc1Cl` (stereo not drawn) [Example 225, 5-(4-Bromobenzyl)-3-[3,5-dichloro-4-(t-butoxycarbonyl)phenyl]-1,3-diazabicyclo[3.3.0]octane-2,4-dione], the melting point is 109 to 110 °C.

Compound `O=C1N(c2cc(Cl)cc(Cl)c2)C(=O)[C@@]2(Cc3ccc(Br)cc3)C[C@H](O)CN12` [Example 61, (5R,7S)-5-(4-Bromobenzyl)-3-(3,5-dichlorophenyl)-7-hydroxy-1,3-diazabicyclo[3.3.0]octane-2,4-dione] returned a melting point of 60.4 °C.

The compound `N#Cc1ccc(CC23CCCN2C(=O)N(c2cc(Cl)cc(Cl)c2N)C3=O)cc1` (stereo not drawn) [Example 240, 5-(4-Cyanobenzyl)-3-(2-amino-3,5-dichlorophenyl)-1,3-diazabicyclo[3.3.0]octane-2,4-dione] gave a melting point of 122.2 °C.

On to `O=C1N(c2cc(Cl)nc(Cl)c2)C(=O)C2(Cc3ccc(OC(F)(F)F)cc3)C[C@H](n3cccc3)CN12` (stereo in doubt) [Example 251, (5R, 7S)-5-[4-(Trifluoromethoxy)benzyl]-3-(2,6-dichloro-4-pyridyl)-7-(1-pyrrolyl)-1,3-diazabicyclo[3.3.0]octane-2,4-dione], for which the melting point is 129.5 °C.

Turning to `CN(C)CC(=O)N1CCN2C(=O)N(c3cc(Cl)nc(Cl)c3)C(=O)C2(Cc2ccc(C#N)cc2)C1` (stereo not drawn) (as salt: HCl) [Example 166, 6-(4-Cyanobenzyl)-4-dimethylaminoacetyl-8-(2,6-dichloro-4-pyridyl)-1,4,8-triazabicyclo[4.3.0]nonane-7,9-dione], the melting point was 260.8 °C (dec.).

For the compound `O=C1N(c2cc(Cl)nc(Cl)c2)C(=O)[C@@]2(Cc3ccc(OC(F)(F)F)cc3)C[C@@H](O)CN12` [Example 58, (5R,7R)-5-[4-(Trifluoromethoxy)benzyl]-3-(2,6-dichloro-4-pyridyl)-7-hydroxy-1,3-diazabicyclo[3.3.0]octane-2,4-dione], the melting point stood at 52.4 °C.
